Reference: patent US10053485B2, “Cytotoxic agents that preferentially target leukemia inhibitory factor (LIF) for the treatment of malignancies and as new contraceptive agents” (Evestra, Inc., priority 2015, dated 2018)

Experiments:
[1] = tested on: T47D (ER+ PR+ Breast Cancer); assay: Short term (72 h) cytotoxicity assay; type: cell-based; details: Homo sapiens
KM12 = assay: NCI-60 screen, Colon Cancer panel; type: cell-based; details: Homo sapiens, KM12, 48 h
786-0 = assay: NCI-60 screen, Renal Cancer panel; type: cell-based; details: Homo sapiens, 786-0, 48 h
DU-145 = assay: NCI-60 screen, Prostate Cancer panel; type: cell-based; details: Homo sapiens, DU-145, 48 h, read-out: GI50 (log10GI50) (converted)
NCI/ADR-RES = assay: NCI-60 screen, Ovarian Cancer panel; type: cell-based; details: Homo sapiens, 48 h
[2] = tested on: LIF-overexpressing MCF-7 (MCF-7 LIF) human breast cancer cells; assay: LIF specificity assay, LIF-overexpressing cells; type: cell-based
HL-60(TB) = assay: NCI-60 screen, Leukemia panel; type: cell-based; details: Homo sapiens, HL-60, 48 h
[3] = tested on: Ishikawa (Endometrial Cancer); assay: Short term (72 h) cytotoxicity assay; type: cell-based; details: Homo sapiens
SF-295 = assay: NCI-60 screen, CNS Cancer panel; type: cell-based; details: Homo sapiens, SF-295, 48 h
NCI-H460 = assay: NCI-60 screen, Non-Small Cell Lung Cancer panel; type: cell-based; details: Homo sapiens, NCI-H460, 48 h
LOX IMVI = assay: NCI-60 screen, Melanoma panel; type: cell-based; details: Homo sapiens, 48 h
[4] = tested on: MDA-MB-231 (TNBC) Xenograft; assay: Tumor xenograft study, MDA-MB-231; type: in vivo, mice
Experimental: (§1) Uniform suspensions of human breast cancer MDA-MB-231 and human ovarian cancer IGROV1 cells (2×10^6) in 100 μL (0.02 carboxymethyl cellulose in phosphate buffered saline) were injected subcutaneously into the right and left flanks of 4- to 5-week-old female athymic nude mice (Charles River Laboratories). After 10 days, when the tumor […] reaches 100 mm^3, the mice were randomly allocated to 3 groups of each containing 6 animals. […] All drug was suspended in PBS followed by sonication (15 seconds with an intermittent interval of 5 seconds) for 1 minute. Tumors were allowed to reach palpability before drug intervention. Tumor size was measured every 3 days using digital Vernier Calipers and tumor volume was calculated using the ellipsoid formula [D×(d2)]/2, where D is the large diameter of the tumor and d represents the small diameter. On day 31, the mice were euthanized and tumors were harvested for protein and gene expression studies. […] FIG. 6B depicts a graph of tumor volume vs. time for the administration of EC300 at 2.5 mg/kg twice weekly in the MDA-MB-231 (TNBC) Xenograft. […] FIG. 7 depicts a graph of tumor volume vs. time for the administration of EC300 at 5 mg/kg 5 days per week in the IGROV1 (Ovarian) Xenograft. […] STAT3 phosphorylation is reduced in tumors that underwent treatment compared to control which is an indication of LIF downstream target.

HCT-116 = assay: NCI-60 screen, Colon Cancer panel; type: cell-based; details: Homo sapiens, HCT-116, 48 h
K-562 = assay: NCI-60 screen, Leukemia panel; type: cell-based; details: Homo sapiens, K562, 48 h
T-47D = assay: NCI-60 screen, Breast Cancer panel; type: cell-based; details: Homo sapiens, T47D, 48 h
[5] = tested on: various cancer cells lines; assay: Cytotoxicity assays in various cancer cell lines; type: cell-based; details: in words
Experimental: Briefly, 5×10^3 cells were seeded in 96-well plates and incubated with compounds (0.0001-10 μmol/L) or dimethyl sulfoxide (DMSO; 0.02% v/v) for 24, 48, and 72 hours at 37° C. and cell viability was measured using a Fluoroscan plate reader.

HOP-92 = assay: NCI-60 screen, Non-Small Cell Lung Cancer panel; type: cell-based; details: Homo sapiens, HOP-92, 48 h
OVCAR-5 = assay: NCI-60 screen, Ovarian Cancer panel; type: cell-based; details: Homo sapiens, OVCAR-5, 48 h
[6] = tested on: IGROV1 (Ovarian) Xenograft; assay: Tumor xenograft study, IGROV1; type: in vivo, mice
Experimental: as §1

[7] = read-out: GI50 (log10GI50) (converted)
[8] = read-out: LC50 (log10LC50) (converted)

C#CC(F)(F)[C@]1(O)CCC2C3CCC4=CC(=O)CCC4=C3C(c3ccc(C4CC4)cc3)C[C@@]21C (stereo partly drawn) [EC330, 17α-(1,1-difluoro-2-propyn-1-yl)-17β-hydroxy-11β-[4-p-(cyclopropyl)phenyl]estra-4,9-dien-3-one]
IC50 [1]: 80 nM | GI50 (KM12; [7]): < 10 nM | CC50 (KM12; [8]): 44700 nM | GI50 (786-0; [7]): < 10 nM | CC50 (786-0; [8]): < 10 nM | GI50 (DU-145): 1910 nM | GI50 (NCI/ADR-RES; [7]): 25.7 nM | CC50 (NCI/ADR-RES; [8]): > 100000 nM | IC50 ([2]; Homo sapiens, MCF7, read-out: MCF-7 LIF IC50): 80 nM | vulnerability of LIF overexpressing cells to cell death ([2]; LIF-overexpressing vs. unmodified MCF-7, in words): more vulnerable to cell death | GI50 (HL-60(TB); [7]): < 10 nM | CC50 (HL-60(TB); [8]): < 10 nM | IC50 [3]: 5 nM | GI50 (SF-295; [7]): < 10 nM | CC50 (SF-295; [8]): < 10 nM | GI50 (NCI-H460; [7]): 2690 nM | CC50 (NCI-H460; [8]): > 100000 nM | GI50 (LOX IMVI; [7]): < 10 nM | CC50 (LOX IMVI; [8]): < 10 nM | apoptosis in xenograft tumors ([4]; MDA-MB-231 xenograft tumors, FIG. 9): induced apoptosis dose dependently | tumor growth ([4]; human triple negative breast cancer (TNBC) model): significantly reduced | STAT3 phosphorylation in tumors ([4]; treated vs. control, 'It is believed'): reduced | GI50 (HCT-116; [7]): 2820 nM | CC50 (HCT-116; [8]): > 100000 nM | GI50 (K-562; [7]): 2190 nM | CC50 (K-562; [8]): > 100000 nM | GI50 (T-47D; [7]): < 10 nM | CC50 (T-47D; [8]): > 100000 nM | IC50's in cytotoxicity assays [5]: low nanomolar | GI50 (HOP-92; [7]): < 10 nM | CC50 (HOP-92; [8]): 19.1 nM | GI50 (OVCAR-5; [7]): 1070 nM | CC50 (OVCAR-5; [8]): > 100000 nM | antitumor activity ([6]; 5 mg/kg (5 days per week), 4 weeks, intraperitoneally): potent antitumor activity | apoptosis in xenograft tumors ([6]; IGR-OV1 xenograft tumors, FIG. 8): induced apoptosis dose dependently | tumor growth ([6]; ovarian cancer model): significantly reduced | STAT3 phosphorylation in tumors ([6]; treated vs. control): reduced
